Series [1] concerns the target Poly [ADP-ribose] polymerase 1 (Homo sapiens, UniProt P09874). Briefly: Inhibition of PARP1 (unknown origin) in presence of NAD+ by homogenous fluorescence plate assay.
A short description of series [2]: Antioxidant activity against H2O2-induced oxidative stress in chicken RBC assessed as catalase activity by measuring H2O2 utilization per mg protein pre-incubated at 25 uM followed by H2O2 addition by UV spectroscopy (reference value: 15.97 +/- 2.12 nmol of H2O2 utilized/min/mg of protein). Type of series: functional, Gallus gallus, Erythrocyte.
Series [3] is described as follows: Cytoprotective activity against H2O2-induced cytotoxicity in chicken RBC assessed as cell viability pre-incubated at 100 uM followed by H2O2 addition by acridine orange and ethidium bromide staining method (reference value: 41 +/- 2.08%). Type of series: functional. As to conditions: Gallus gallus, Erythrocyte; read-out: Activity.
The nature of series [4]: Toxicity against chicken RBC assessed as effect on cell viability at 25 to 100 uM by acridine orange and ethidium bromide staining method. The series is classed as cell-based, Gallus gallus. As to conditions: erythrocyte.
Series [5] in a line: Antioxidant activity against H2O2-induced oxidative stress in chicken RBC assessed as superoxide dismutase activity by measuring pyrogallol oxidization per mg protein pre-incubated at 100 uM followed by H2O2 addition by UV spectroscopy (reference value: 11.32 +/- 1.96 pyrogallol oxidized/min/mg of protein). The series is classed as functional, Gallus gallus, Erythrocyte.
A short description of series [6]: Antioxidant activity against H2O2-induced oxidative stress in chicken RBC assessed as lipid peroxidation level by measuring malondialdehyde formation per mg protein pre-incubated at 25 uM followed by H2O2 addition by UV spectroscopy (reference value: 84.32 +/- 12.04 nmol malondialdehyde formed/mg protein). Type of series: functional, Gallus gallus, Erythrocyte.

Series [7] can be described thus: Antioxidant activity against H2O2-induced oxidative stress in chicken RBC assessed as superoxide dismutase activity by measuring pyrogallol oxidization per mg protein pre-incubated at 75 uM followed by H2O2 addition by UV spectroscopy (reference value: 11.32 +/- 1.96 pyrogallol oxidized/min/mg of protein). Type of series: functional, Gallus gallus, Erythrocyte.
Series [8] is described as follows: Antioxidant activity against H2O2-induced oxidative stress in chicken RBC assessed as superoxide dismutase activity by measuring pyrogallol oxidization per mg protein pre-incubated at 50 uM followed by H2O2 addition by UV spectroscopy (reference value: 11.32 +/- 1.96 pyrogallol oxidized/min/mg of protein). The series is classed as functional, Gallus gallus, Erythrocyte.

A short description of series [9]: Antioxidant activity against H2O2-induced oxidative stress in chicken RBC assessed as superoxide dismutase activity by measuring pyrogallol oxidization per mg protein pre-incubated at 25 uM followed by H2O2 addition by UV spectroscopy (reference value: 11.32 +/- 1.96 pyrogallol oxidized/min/mg of protein). Type of series: functional, Gallus gallus, Erythrocyte.

A short description of series [10]: Antioxidant activity against H2O2-induced oxidative stress in chicken RBC assessed as lipid peroxidation level by measuring malondialdehyde formation per mg protein pre-incubated at 50 uM followed by H2O2 addition by UV spectroscopy (reference value: 84.32 +/- 12.04 nmol malondialdehyde formed/mg protein). Type of series: functional, Gallus gallus, Erythrocyte.

The test system of series [11] is Erythrocyte. Briefly: Cytoprotective activity against H2O2-induced genomic DNA damage in chicken RBC assessed as DNA level in comet head region pre-incubated at 100 uM followed by H2O2 addition by single cell alkaline gel electrophoresis and fluorescent microscopy based comet assay (reference value: 52.23 +/- 3.98%). The series is classed as functional, Gallus gallus.

Series [12] in a line: Antioxidant activity against H2O2-induced oxidative stress in chicken RBC assessed as lipid peroxidation level by measuring malondialdehyde formation per mg protein pre-incubated at 100 uM followed by H2O2 addition by UV spectroscopy (reference value: 84.32 +/- 12.04 nmol malondialdehyde formed/mg protein). The series is classed as functional, Gallus gallus, Erythrocyte.
The test system of series [13] is Erythrocyte. Briefly: Cytoprotective activity against H2O2-induced genomic DNA damage in chicken RBC assessed as DNA level in comet tail region pre-incubated at 100 uM followed by H2O2 addition by single cell alkaline gel electrophoresis and fluorescent microscopy based comet assay (reference value: 45.78 +/- 3.24%). The series is classed as functional, Gallus gallus.

Series [14] in a line: Antioxidant activity against H2O2-induced oxidative stress in chicken RBC assessed as catalase activity by measuring H2O2 utilization per mg protein pre-incubated at 75 uM followed by H2O2 addition by UV spectroscopy (reference value: 15.97 +/- 2.12 nmol of H2O2 utilized/min/mg of protein). The series is classed as functional, Gallus gallus, Erythrocyte.
The nature of series [15]: Antioxidant activity against H2O2-induced oxidative stress in chicken RBC assessed as catalase activity by measuring H2O2 utilization per mg protein pre-incubated at 50 uM followed by H2O2 addition by UV spectroscopy (reference value: 15.97 +/- 2.12 nmol of H2O2 utilized/min/mg of protein). The series is classed as functional, Gallus gallus, Erythrocyte.
The nature of series [16]: Antioxidant activity against H2O2-induced oxidative stress in chicken RBC assessed as lipid peroxidation level by measuring malondialdehyde formation per mg protein pre-incubated at 75 uM followed by H2O2 addition by UV spectroscopy (reference value: 84.32 +/- 12.04 nmol malondialdehyde formed/mg protein). Type of series: functional, Gallus gallus, Erythrocyte.
Series [17] is described as follows: Antioxidant activity against H2O2-induced oxidative stress in chicken RBC assessed as catalase activity by measuring H2O2 utilization per mg protein pre-incubated at 100 uM followed by H2O2 addition by UV spectroscopy (reference value: 15.97 +/- 2.12 nmol of H2O2 utilized/min/mg of protein). The series is classed as functional, Gallus gallus, Erythrocyte.

In general, IC50 refers to the point on the concentration scale where inhibition reaches its midpoint.

Sequence of Poly [ADP-ribose] polymerase 1 (P09874 whole entry): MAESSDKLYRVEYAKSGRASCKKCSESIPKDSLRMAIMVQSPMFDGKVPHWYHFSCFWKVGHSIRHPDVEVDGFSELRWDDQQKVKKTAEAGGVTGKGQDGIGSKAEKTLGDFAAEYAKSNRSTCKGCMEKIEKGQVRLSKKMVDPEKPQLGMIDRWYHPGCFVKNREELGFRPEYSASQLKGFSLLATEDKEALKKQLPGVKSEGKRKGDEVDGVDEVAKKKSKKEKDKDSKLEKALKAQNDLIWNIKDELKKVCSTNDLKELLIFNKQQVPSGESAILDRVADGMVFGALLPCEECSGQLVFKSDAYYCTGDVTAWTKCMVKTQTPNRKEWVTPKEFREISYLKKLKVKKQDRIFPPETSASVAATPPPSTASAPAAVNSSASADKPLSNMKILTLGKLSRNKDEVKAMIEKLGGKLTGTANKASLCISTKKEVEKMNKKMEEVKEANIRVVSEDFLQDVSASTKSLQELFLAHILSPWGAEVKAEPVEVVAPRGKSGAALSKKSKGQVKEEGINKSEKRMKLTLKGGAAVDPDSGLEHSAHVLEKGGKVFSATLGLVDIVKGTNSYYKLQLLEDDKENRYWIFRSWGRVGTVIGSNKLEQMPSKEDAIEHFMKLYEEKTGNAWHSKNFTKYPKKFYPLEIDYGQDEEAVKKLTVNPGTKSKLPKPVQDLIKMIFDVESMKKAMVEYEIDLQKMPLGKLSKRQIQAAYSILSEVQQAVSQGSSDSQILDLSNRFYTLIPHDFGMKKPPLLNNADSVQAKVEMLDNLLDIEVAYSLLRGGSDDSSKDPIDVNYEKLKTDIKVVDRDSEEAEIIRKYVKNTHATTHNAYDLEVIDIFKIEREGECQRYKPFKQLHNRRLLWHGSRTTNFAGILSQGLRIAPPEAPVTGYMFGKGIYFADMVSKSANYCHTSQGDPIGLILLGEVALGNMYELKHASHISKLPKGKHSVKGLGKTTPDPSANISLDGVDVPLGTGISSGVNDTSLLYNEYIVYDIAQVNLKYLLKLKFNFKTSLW

`O=C1NCCc2c(OCCCCN3CCCCC3)cccc21`: in series [1], the IC50 came to 53.2 nM.

For `O=C1c2ccccc2C2(O)c3ccc(Br)cc3CCN12` (stereo not drawn), the Activity in series [2] is 36.597 nmol/min/mg; in series [4] it was “Non-toxic”; in series [5], 21.58 µmol/min; in [6], 70.74 nmol/mg protein; in series [7] it was 17.51 µmol/min; in series [8], 14.05 µmol/min. For the same molecule, the Activity in series [9] worked out at 12.8667 µmol/min; in [10], 54.24 nmol/mg protein; in the series with Erythrocyte [11], 94.32%; in series [12] it was 16.75 nmol/mg protein; in the series with Erythrocyte [13] it was 4.55%; in [14], 56.05 nmol/min/mg. Besides, the Activity is recorded as 51.14 nmol/min/mg in series [15], 34.52 nmol/mg protein in series [16] and 65.007 nmol/min/mg protein in series [17]. Also, the viability at 100 µM in [3] was 75.3%.

With `COc1cc2c(cc1O)C1(O)c3ccccc3C(=O)N1CC2` (stereo not drawn), the Activity is 29.52 nmol/min/mg in [2]; “Non-toxic” in [4]; 30.94 µmol/min in [5]; 52.71 nmol/mg protein in [6]; 28.863 µmol/min in series [7]; 21.63 µmol/min in series [8]. Besides, the Activity in [9] came out at 18.616 µmol/min; in series [10] it was 47.15 nmol/mg protein; in the series on Erythrocyte [11] it was 92.3%; in [12], 15.02 nmol/mg protein; with Erythrocyte [13], 7.34%; in series [14] it was 62.57 nmol/min/mg. Further, the Activity in series [15] was found to be 51.49 nmol/min/mg; in [16], 26.35 nmol/mg protein; in [17], 70.66 nmol/min/mg protein. Further, the viability at 100 µM in [3] is 93.6%.

The record behind these values is ChEMBL document CHEMBL3393053, “Synthesis and biological evaluation of isoindoloisoquinolinone, pyroloisoquinolinone and benzoquinazolinone derivatives as poly(ADP-ribose) polymerase-1 inhibitors” (Bioorg Med Chem, 2015).
